Laboratory results taken from ChEMBL document CHEMBL5113507, “Discovery of potent ebola entry inhibitors with (3S,4aS,8aS)-2-(3-amino-2-hydroxypropyl) decahydroisoquinoline-3-carboxamide scaffold” (Eur J Med Chem, 2022).

How the values were obtained:
[1] = cells
[2] = Cytotoxicity against human Huh-7 cells assessed as reduction in cell viability by cellular ATP method; assay type: toxicity, cell-based

Row | SMILES | IC50 [1] [µM] | CC50 [2] [µM]
1 | CN(C)CCOc1ccc(/C(=C(/CCCl)c2ccccc2)c2ccccc2)cc1 [TOREMIFENE] | 0.17 | 9.31
2 | CC(C)(C)NC(=O)[C@@H]1C[C@@H]2CCCC[C@@H]2CN1C[C@H](O)CNCCc1ccc(Cl)cc1 | – | 4.04
3 | CC(C)(C)NC(=O)[C@@H]1C[C@@H]2CCCC[C@@H]2CN1C[C@@H](O)[C@H](Cc1ccccc1)NC(=O)[C@H](CC(N)=O)NC(=O)c1ccc2ccccc2n1 | 10.5 | –
